pEC50: −log10 of the molar value. Values joined by “and” are separate entries in the source; they are usually repeats but may differ in a detail not shown here. Equal values may be shown once. Read-outs that look alike come from different tables or passages of the source.
Assays:
SARS-CoV-2-nLUC [1] = assay type: cell-based; settings: Nirmatrelvir 5 uM, Lonafarnib 0 uM
SARS-CoV-2-nLUC [2] = assay type: cell-based
SARS-CoV-2-nLUC [3] = assay: microbe, parasite or virus in culture; assay type: cell-based; settings: for pEC50: Severe acute respiratory syndrome coronavirus 2, Vero C1008, 24 h, VeroE6, 24 h, Fig 1G, Fig 5B, read-out: EC50
SARS-CoV-2 = assay type: cell-based; set-up: TOA: unit not given here
in vitro = settings: African green monkey
viral RdRp = viral RdRp (Severe acute respiratory syndrome coronavirus 2, UniProt P0DTD1); assay: In vitro RdRp activity assay (RNA extension); assay type: biochemical, SARS-CoV-2; settings: LNF 0.1, 1 and 10 μM; TEMPOL 100 μM
[4] = tested on: FTase (HDJ2 farnesylation); assay: HDJ2 electrophoretic mobility shift (Western blot); assay type: cell-based; settings: 24 h treatment
[5] = tested on: SARS-CoV-2 strain USA-WA1/2020; assay type: in vivo, mouse; settings: mouse, in vivo
[6] = tested on: SARS-CoV-2 strain USA-WA1/2020; assay type: in vivo, mouse; settings: mouse, in vivo; remark: listed apart in the source

## CC(C)(C)[C@H](NC(=O)C(F)(F)F)C(=O)N1C[C@H]2[C@@H]([C@H]1C(=O)N[C@H](C#N)C[C@@H]1CCNC1=O)C2(C)C [NRTV, nirmatrelvir]
SARS-CoV-2-nLUC [1]
  Response: 21.0635 and 36.2768 and 23.2893
SARS-CoV-2-nLUC [2]
  Response: 96.7462 and 94.1773 and 94.981
SARS-CoV-2-nLUC [2]; Lonafarnib 0 uM, Nirmatrelvir 0.3125 uM, sheet S3B, replicates
  Response: 50.9786 and 35.7701 and 31.2174
SARS-CoV-2-nLUC [2]; Lonafarnib 0 uM, Nirmatrelvir 0.625 uM, sheet S3B, replicates
  Response: 89.9445 and 77.1784 and 77.0959
SARS-CoV-2-nLUC [2]; Lonafarnib 0 uM, Nirmatrelvir 2.5 uM, sheet S3B, replicates
  Response: 97.3124 and 96.7918 and 96.5986
SARS-CoV-2-nLUC [2]; Lonafarnib 0 uM, Nirmatrelvir 5 uM, sheet S3B, replicates
  Response: 97.4859 and 97.2147 and 96.9835

## Cn1cncc1[C@@](N)(c1ccc(Cl)cc1)c1ccc2c(c1)c(-c1cccc(Cl)c1)cc(=O)n2C [Tipifarnib, tipifarnib]
SARS-CoV-2-nLUC [3]
  pEC50: 5.05
SARS-CoV-2-nLUC [3]; Tipifarnib, log concentration 0.273001
  Replication: 115.708 and 115.2 and 116.296 and 113.383
SARS-CoV-2-nLUC [3]; Tipifarnib, log concentration 0.875061
  Replication: 62.3306 and 62.0856 and 61.494 and 61.1331
SARS-CoV-2-nLUC [3]; Tipifarnib, log concentration -0.630089
  Replication: 101.05 and 102.091 and 101.412 and 103.944
SARS-CoV-2-nLUC [3]; Tipifarnib, log concentration -1.23215
  Replication: 100.484 and 100.389 and 101.92 and 99.313
SARS-CoV-2
  time-of-addition result: modest effect on the early stage of infection, while the efficacy was much higher in the late stage
SARS-CoV-2; treatment window (0,2)
  TOA: 76.7425 and 75.484 and 113.203 and 99.7613 and 81.3458 and 84.3089 and 102.68 and 108.689
SARS-CoV-2; treatment window (-2,0)
  TOA: 92.86 and 92.659 and 88.2304 and 87.5224 and 122.157 and 114.273 and 92.7843 and 93.347
SARS-CoV-2; treatment window (-2,2)
  TOA: 31.6226 and 35.7452 and 33.0851 and 30.5839 and 34.705 and 34.7924 and 25.2067 and 23.5518
In vitro
  CC50 at 24 h: > 30 µM

## CC1(C)CC(O)CC(C)(C)N1[O] [TEMPOL]
Viral RdRp
  polymerase activity, primer extension: inhibited

## COC(=O)[C@H](CCSC)NC(=O)c1ccc(NC[C@@H](N)CS)cc1-c1ccccc1 [FTI-277]
SARS-CoV-2-nLUC [3]; FTI-277, log concentration 0.670941
  Replication: 89.119 and 77.5271 and 84.1138 and 103.187
SARS-CoV-2-nLUC [3]; FTI-277, log concentration 1.273
  Replication: 92.4526 and 80.5819 and 108.059 and 113.995
SARS-CoV-2-nLUC [3]; FTI-277, log concentration 1.87506
  Replication: 83.8498 and 84.554 and 94.5905 and 116.747
SARS-CoV-2-nLUC [3]; FTI-277, log concentration -0.232149
  Replication: 89.4553 and 85.664 and 88.5087 and 105.35
SARS-CoV-2-nLUC [3]
  pEC50: 3.96
SARS-CoV-2
  time-of-addition result: modest effect on the early stage of infection, while the efficacy was much higher in the late stage
SARS-CoV-2; treatment window (0,24)
  TOA: 1.616 and 2.237 and 1.147 and 1.155 and 1.238 and 1.196 and 1.435
SARS-CoV-2; treatment window (2,4)
  TOA: 73.8837 and 74.2661 and 52.3189 and 51.5089 and 53.0507 and 54.4857 and 76.2725 and 76.8029
SARS-CoV-2; treatment window (-2,0)
  TOA: 151.258 and 149.655 and 121.084 and 123.07 and 140.174 and 141.115 and 96.719 and 94.1082
SARS-CoV-2; treatment window (-2,2)
  TOA: 54.1321 and 53.7538 and 48.4664 and 48.121 and 49.0338 and 47.603 and 41.7688 and 40.1735
[4]
  anti-FTase activity, HDJ2 shift: weaker anti-FTase activity
In vitro
  CC50 at 24 h: 220 µM

## CCC(CC)COC(=O)[C@H](C)N[P@](=O)(OC[C@H]1O[C@@](C#N)(c2ccc3c(N)ncnn23)[C@H](O)[C@@H]1O)Oc1ccccc1 [RDV, Remdesivir]
SARS-CoV-2
  time-of-addition result: minimal effect when added for a limited duration at early time points, but showed maximum efficacy when it was added later after infection
[5]
  lung viral titer: did not show much reduction in viral titers
[6]
  composite clinical score: much improved disease parameters
